The results in this text go back to patent US10745398B2, “2-(het)aryl-substituted fused heterocycle derivatives as pesticides” (Bayer CropScience Aktiengesellschaft, priority 2015, dated 2020).

Each structure is given as a SMILES string.

Data set [1] relates to adult houseflies (Musca domestica). The experiment in a line: Musca domestica test. It counts as in vivo. The following applies: application rate 100 ppm, after 2 days. The method, then:
(§1) Solvent: dimethyl sulphoxide
(§2) To produce a suitable active compound preparation, 10 mg of active compound are mixed with 0.5 ml of dimethyl sulphoxide, and the concentrate is diluted with water to the desired concentration.
Vessels containing a sponge treated with sugar solution and the active compound preparation of the desired concentration are populated with 10 adult houseflies (Musca domestica).
After 2 days, the kill in % is determined. 100% means that all of the flies have been killed; 0% means that none of the flies have been killed.

Data set [2] has as its system unfed adult cat fleas (Ctenocephalides felis). Kind of data set: Ctenocephalides felis - oral test. In kind it is in vivo. To be noted: application rate 100 ppm in citrated cattle blood, after 2 days. The method, then: as §1
To produce a suitable active compound preparation, 10 mg of active compound are mixed with 0.5 ml of dimethyl sulphoxide. Dilution with citrated cattle blood gives the desired concentration.
About 20 unfed adult cat fleas (Ctenocephalides felis) are placed into a chamber which is closed at the top and bottom with gauze. A metal cylinder whose bottom end is closed with parafilm is placed onto the chamber. The cylinder contains the blood/active compound preparation, which can be imbibed by the fleas through the parafilm membrane.
After 2 days, the kill in % is determined. 100% means that all of the fleas have been killed; 0% means that none of the fleas have been killed.

In data set [3] the test system is L1 larvae of the Australian sheep blowfly (Lucilia cuprina). The experiment in a line: Lucilia cuprina test. It counts as in vivo. The following applies: application rate 100 ppm, after 2 days. On the procedure: as §1, §2
About 20 L1 larvae of the Australian sheep blowfly (Lucilia cuprina) are transferred into a test vessel containing minced horsemeat and the active compound preparation of the desired concentration.
After 2 days, the kill in % is determined. 100% means that all the larvae have been killed; 0% means that no larvae have been killed.

In data set [4] the test system is green peach aphid (Myzus persicae). The experiment in a line: Myzus persicae - spray test. It counts as in vivo. The following applies: application rate 500 g/ha, Chinese cabbage leaf discs, after 5-6 days. On the procedure: Solvent: 78 parts by weight of acetone • • 1.5 parts by weight of dimethylformamide
(§3) Emulsifier: alkylaryl polyglycol ether
(§4) To produce a suitable active compound preparation, 1 part by weight of active compound is dissolved with the stated parts by weight of solvent and made up with water containing an emulsifier concentration of 1000 ppm until the desired concentration is attained. To produce further test concentrations, the preparation is diluted with emulsifier-containing water.
Discs of Chinese cabbage leaves (Brassica pekinensis) infested by all stages of the green peach aphid (Myzus persicae) are sprayed with an active compound preparation of the desired concentration.
After 5-6 days, the efficacy in % is determined. 100% means that all the aphids have been killed; 0% means that no aphids have been killed.

Data set [5] deals with adult cat fleas (Ctenocephalides felis). The experiment in a line: Ctenocephalides felis - in vitro contact tests with adult cat fleas. It counts as in vivo. To be noted: application rate 5 μg/cm^2 (500 g/ha), after 48 h. The method, then:
For the coating of the test tubes, 9 mg of active compound are first dissolved in 1 ml of acetone p.a. and then diluted to the desired concentration with acetone p.a. 250 μl of the solution are distributed homogeneously on the inner walls and the base of a 25 ml test tube by turning and rocking on an orbital shaker (rocking rotation at 30 rpm for 2 h). With 900 ppm active compound solution and internal surface 44.7 cm^2, given homogeneous distribution, an area-based dose of 5 μg/cm^2 is achieved.
After the solvent has evaporated off, the tubes are populated with 5-10 adult cat fleas (Ctenocephalides felis), sealed with a perforated plastic lid and incubated in a horizontal position at room temperature and ambient humidity. After 48 h, efficacy is determined. To this end, the test tubes are stood upright and the fleas are knocked to the base of the tube. Fleas which remain motionless at the base or move in an uncoordinated manner are considered to be dead or moribund.
100% efficacy means that all the fleas were dead or moribund. 0% efficacy means that no fleas were harmed.

In data set [6] the test system is larvae of the mustard beetle (Phaedon cochleariae). Kind of data set: Phaedon cochleariae - spray test. It counts as in vivo. The following applies: application rate 500 g/ha, Chinese cabbage leaf discs, after 7 days. The method, then:
(§5) Solvent: 78.0 parts by weight of acetone • • 1.5 parts by weight of dimethylformamide
as §3, §4
After 7 days, the efficacy in % is determined. 100% means that all the beetle larvae have been killed; 0% means that no beetle larvae have been killed.

Data set [7] deals with engorged adult female cattle ticks (Boophilus microplus). The experiment in a line: Boophilus microplus - injection test. It counts as in vivo. The following applies: application rate 20 μg/animal, assessed after 7 days. The method, then:
as §1
To produce a suitable active compound preparation, 10 mg of active compound are mixed with 0.5 ml of solvent and the concentrate is diluted with solvent to the desired concentration.
1 μl of the active compound solution is injected into the abdomen of 5 engorged adult female cattle ticks (Boophilus microplus). The animals are transferred into dishes and kept in a climate-controlled room.
Efficacy is assessed after 7 days by laying of fertile eggs. Eggs which are not visibly fertile are stored in a climate-controlled cabinet until the larvae hatch after about 42 days. An efficacy of 100% means that none of the ticks has laid any fertile eggs; 0% means that all the eggs are fertile.

A short description of data set [8]: log P (neutral) by HPLC on reversed-phase column (C 18), EEC Directive 79/831 Annex V.A8. In kind it is physicochemical. The following applies: HPLC reversed-phase C 18, 55° C., neutral range pH 7.8, ammonium hydrogencarbonate/acetonitrile.
In data set [9] the test system is greenhouse red spider mite (Tetranychus urticae). The experiment in a line: Tetranychus urticae - spray test, OP-resistant. It counts as in vivo. The following applies: application rate 500 g/ha, bean leaf discs, after 6 days. The method, then:
as §5, §3, §4
Discs of bean leaves (Phaseolus vulgaris) infested with all stages of the greenhouse red spider mite (Tetranychus urticae) are sprayed with an active compound preparation of the desired concentration.
After 6 days, the efficacy in % is determined. 100% means that all the spider mites have been killed; 0% means that no spider mites have been killed.

In data set [10] the test system is caterpillars of the armyworm (Spodoptera frugiperda). Kind of data set: Spodoptera frugiperda - spray test. In kind it is in vivo. To be noted: application rate 500 g/ha, maize leaf discs, after 7 days. On the procedure: as §5, §3, §4
Leaf discs of maize (Zea mays) are sprayed with an active compound preparation of the desired concentration and, after drying, populated with caterpillars of the armyworm (Spodoptera frugiperda).
After 7 days, the efficacy in % is determined. 100% means that all the caterpillars have been killed; 0% means that no caterpillar has been killed.

In data set [11] the test system is southern root-knot nematode (Meloidogyne incognita). The experiment in a line: Meloidogyne incognita test. It counts as in vivo. To be noted: application rate 20 ppm, lettuce, after 14 days. The method, then: Solvent: 125.0 parts by weight of acetone
To produce a suitable preparation of active compound, 1 part by weight of active compound is mixed with the stated amount of solvent and the concentrate is diluted with water to the desired concentration.
Vessels are filled with sand, active compound solution, an egg/larvae suspension of the southern root-knot nematode (Meloidogyne incognita) and lettuce seeds. The lettuce seeds germinate and the plants develop. The galls develop on the roots.
After 14 days, the nematicidal efficacy in % is determined by the formation of galls. 100% means that no galls were found; 0% means that the number of galls on the treated plants corresponds to the untreated control.

Consider `CCS(=O)(=O)c1ccc(-n2cnn(-c3ccccc3F)c2=O)nc1-c1nc2cc(C(F)(F)F)ncc2n1C` [Example I-1], for which the “efficacy (kill in %)” value in [1] is on record as 80%; in [2], 100%; in data set [3], 100%. Moreover, the “efficacy (aphids killed)” value in data set [4] turned out to be 90%. Moreover, in data set [5], the “efficacy (fleas dead or moribund)” value came to 100%. Moreover, in data set [6], the “efficacy (beetle larvae killed)” value is recorded as 100%. In addition, the “efficacy (no laying of fertile eggs)” value in data set [7] was determined as 80%. Further, in [8], the “log P (neutral)” value was “Example I-1: logP (neutral): 3.03 ^1H-NMR(400.0 MHz, d6-DMSO): δ =”. Besides, the “efficacy (spider mites killed)” value in data set [9] came out at 100%. Further, the “efficacy (caterpillars killed)” value in data set [10] stood at 100%.
Consider `CCS(=O)(=O)c1ccc(-n2ncn(-c3ccccc3)c2=O)nc1-c1nc2cc(C(F)(F)F)ncc2n1C` [Example I-15], for which the “nematicidal efficacy (formation of galls)” value in data set [11] was found to be 100%. Moreover, the “efficacy (kill in %)” value in data set [2] and in data set [3] was 100% throughout. Moreover, the “efficacy (fleas dead or moribund)” value in data set [5] came to 100%. In addition, in data set [6], the “efficacy (beetle larvae killed)” value was 100%. Also, the “efficacy (no laying of fertile eggs)” value in data set [7] is given as 80%. For the same compound, in data set [8], the “log P (neutral)” value was “Example I-15: logP (neutral): 2.70 1H-NMR(400.0 MHz, d6-DMSO): □ =”. For the same compound, in data set [9], the “efficacy (spider mites killed)” value was 70%. Further, the “efficacy (caterpillars killed)” value in [10] came to 100%.
With `CCS(=O)(=O)c1ccc(-n2ncn(-c3cccnc3)c2=O)nc1-c1nc2cc(C(F)(F)F)ncc2n1C` [Example I-17], the “nematicidal efficacy (formation of galls)” value in data set [11] is given as 100%. Further, the “efficacy (kill in %)” value is 95% in data set [2] and 100% in [3]. In addition, the “efficacy (aphids killed)” value in [4] came out at 90%. In data set [6], the “efficacy (beetle larvae killed)” value turned out to be 100%. The “log P (neutral)” value in data set [8] was “Example I-17: logP (neutral): 2.06 1H-NMR(400.0 MHz, d6-DMSO): □ =”. For the same compound, the “efficacy (spider mites killed)” value in data set [9] was 90%.
